Results reported in the supplement of paper PMC10307832.

Columns and labels:
Assay in all cases: relative viability (nuclei count vs DMSO), 5 days (fraction); higher = more cells survive
[1] = compound: CC1(C)CCC(CN2CCN(c3ccc(C(=O)NS(=O)(=O)c4ccc(NCC5CCOCC5)c([N+](=O)[O-])c4)c(Oc4cnc5[nH]ccc5c4)c3)CC2)=C(c2ccc(Cl)cc2)C1 [Venetoclax] + C[C@@H](Oc1cc(-c2cnn(C3CCNCC3)c2)cnc1N)c1c(Cl)ccc(F)c1Cl [Crizotinib] (partner 1 µM)
Procedure, shortened: (§1)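 Lung cancer cell lines in 1536-well plates were dosed by pin tool the day after seeding, either with one drug alone or with a fixed anchor-drug dose plus five library-drug doses (not always all listed) in √10 steps. After 5 days, cells were fixed and their nuclei stained in one step (final 0.05% Triton X-100, 1% formaldehyde, 1 ug/ml Hoechst), then counted on 4× images. Relative viability is the nuclei count in treated wells divided by that in vehicle wells. Values are medians of duplicate plates.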

[2] = compound: Cn1cnc2c(F)c(Nc3ccc(Br)cc3Cl)c(C(=O)NOCCO)cc21 [Selumetinib] + CC1(C)CCC(c2ccc(Cl)cc2)=C(CN2CCN(c3ccc(C(=O)NS(=O)(=O)c4ccc(N[C@H](CCN5CCOCC5)CSc5ccccc5)c(S(=O)(=O)C(F)(F)F)c4)cc3)CC2)C1 [Navitoclax] (partner 0.5 µM)
Procedure, shortened: as §1

[3] = compound: Cn1cnc2c(F)c(Nc3ccc(Br)cc3Cl)c(C(=O)NOCCO)cc21 [Selumetinib] + CCNC(=O)c1noc(-c2cc(C(C)C)c(O)cc2O)c1-c1ccc(CN2CCOCC2)cc1 [Luminespib] (partner 0.01 µM)
Procedure, shortened: as §1

[4] = compound: Cn1cnc2c(F)c(Nc3ccc(Br)cc3Cl)c(C(=O)NOCCO)cc21 [Selumetinib] + Cc1nc(Nc2ncc(C(=O)Nc3c(C)cccc3Cl)s2)cc(N2CCN(CCO)CC2)n1 [Dasatinib] (partner 0.075 µM)
Procedure, shortened: as §1

Cell Line	relative viability ([1]; first compound 0.01 µM)	relative viability ([1]; first compound 0.03162 µM)	relative viability ([1]; first compound 0.1 µM)	relative viability ([1]; first compound 0.3162 µM)	relative viability ([1]; first compound 1 µM)	relative viability ([2]; first compound 0.02 µM)	relative viability ([2]; first compound 0.06325 µM)	relative viability ([2]; first compound 0.2 µM)	relative viability ([2]; first compound 0.6325 µM)	relative viability ([3]; first compound 0.02 µM)	relative viability ([3]; first compound 0.06325 µM)	relative viability ([3]; first compound 0.2 µM)	relative viability ([3]; first compound 0.6325 µM)	relative viability ([4]; first compound 0.02 µM)	relative viability ([4]; first compound 0.06325 µM)	relative viability ([4]; first compound 0.2 µM)	relative viability ([4]; first compound 0.6325 µM)
LOU-NH91	0.751	0.751	0.756	0.729	0.697	0.631	0.607	0.514	0.556	0.381	0.302	0.329	0.359	0.547	0.504	0.495	0.534
LU99A	0.555	0.587	0.576	0.586	0.526	0.856	0.816	0.928	0.563	0.246	0.259	0.202	0.201	0.58	0.643	0.509	0.6
LXF-289	0.832	0.816	0.776	0.798	0.702	0.913	0.894	0.754	0.754	0.692	0.688	0.491	0.544	0.223	0.315	0.324	0.311
NCI-H23	0.488	0.491	0.353	0.507	0.394	0.851	0.827	0.672	0.63	0.24	0.215	0.188	0.175	0.808	0.644	0.5	0.397
NCI-H322M	0.988	0.838	0.912	0.894	0.878	1.14	0.795	1.05	1.04	0.739	0.547	0.572	0.481	0.248	0.237	0.24	0.263
NCI-H441	0.845	0.976	0.745	0.679	0.71	0.959	0.574	0.839	0.546	0.25	0.272	0.204	0.28	0.602	0.363	0.41	0.307
NCI-H460	0.902	0.773	0.946	0.908	0.719	1.18	0.916	0.86	0.578	0.0285	0.0384	0.041	0.0306	0.332	0.272	0.155	0.128
NCI-H520	0.769	0.698	0.658	0.835	0.698	1.08	1.1	1.12	1.07	0.226	0.215	0.213	0.238	0.261	0.29	0.278	0.306
NCI-H596	1.14	0.893	1.02	1.02	1.02	0.906	0.845	0.677	0.415	1.13	1.06	0.914	0.725	0.625	0.546	0.565	0.483
NCI-H647	0.803	1.35		0.974	0.722	1.26	0.935	0.874	0.959	0.195	0.141	0.125	0.136	0.187	0.2	0.167	0.154
NCI-H727	0.838	0.922	0.912	0.976	0.673	0.237	0.184	0.119	0.103	0.257	0.241	0.206	0.267	0.308	0.299	0.267	0.279
NCI-H838	0.815	0.854	0.8	0.88	0.795	1.01	0.965	0.963	0.88	0.369	0.331	0.207	0.259	0.275	0.254	0.304	0.267
NCI-H1355	1.07	1.14	1.07	0.984	1.04	0.893	0.932	0.776	0.513	0.665	0.736	0.6	0.476	0.717	0.631	0.543	0.413
NCI-H1437	0.851	0.941	0.949	0.899	0.864	1.07	0.856	0.75	0.487	1.15	1.13	1.03	0.782	0.334	0.231	0.197	0.215
NCI-H1650	0.831	0.986		0.74	0.842	1	0.893	0.904	1.01	0.194	0.2	0.198	0.202	0.333	0.298	0.323	0.337
NCI-H1651	0.866	0.856	0.879	0.889	0.825	1.1	0.941	0.887	0.846	0.757	0.828	0.835	0.615	0.387	0.378	0.402	0.362
NCI-H1666	0.94	0.985	1.02	1	0.916	0.773	0.582	0.592	0.479	0.996	0.829	0.943	0.757	0.759	0.831	0.837	0.729
NCI-H1734	0.733	0.833	0.724	0.73	0.614	0.862	0.818	0.87	0.679	0.195	0.176	0.17	0.152	0.506	0.531	0.466	0.549
NCI-H1755	0.769	0.885	0.872	0.863	0.779	1.03	0.986	0.961	0.948	0.715	0.531	0.495	0.368	0.417	0.388	0.407	0.476

Cell Line	relative viability ([1]; first compound 0.01 µM)	relative viability ([1]; first compound 0.03162 µM)	relative viability ([1]; first compound 0.1 µM)	relative viability ([1]; first compound 0.3162 µM)	relative viability ([1]; first compound 1 µM)	relative viability ([2]; first compound 0.02 µM)	relative viability ([2]; first compound 0.06325 µM)	relative viability ([2]; first compound 0.2 µM)	relative viability ([2]; first compound 0.6325 µM)	relative viability ([3]; first compound 0.02 µM)	relative viability ([3]; first compound 0.06325 µM)	relative viability ([3]; first compound 0.2 µM)	relative viability ([3]; first compound 0.6325 µM)	relative viability ([4]; first compound 0.02 µM)	relative viability ([4]; first compound 0.06325 µM)	relative viability ([4]; first compound 0.2 µM)	relative viability ([4]; first compound 0.6325 µM)
NCI-H1792	0.938	0.946	0.983	0.98	0.93	0.741	0.641	0.522	0.533	0.387	0.408	0.379	0.313	0.787	0.802	0.704	0.597
NCI-H1915	0.882	0.862	0.811	0.836	0.805	0.714	0.792	0.795	0.498	0.887	0.744	0.587	0.373	0.302	0.281	0.225	0.174
NCI-H1944	1.18	1.17	0.791	1.04	1.12	0.97	0.945	0.756	0.779	0.907	0.59	0.48	0.445	0.186	0.186	0.161	0.167
NCI-H1975	1.13	0.907	0.974	0.879	0.867	1.23	1.22	1.01	0.728	0.143	0.209	0.175	0.183	0.333	0.299	0.272	0.269
NCI-H1993	0.854	0.851	0.906	0.838	0.774	0.801	0.79	0.749	0.648	0.786	0.776	0.695	0.569	0.545	0.534	0.572	0.609
NCI-H2009	0.99	1.01	0.954	1.01	0.968	1.07	0.935	0.673	0.554	0.826	0.753	0.558	0.371	0.233	0.183	0.163	0.151
NCI-H2023	0.541	0.737	0.721	0.552	0.53	0.937	0.924	0.959	0.783	0.947	0.669	0.575	0.575	0.534	0.484	0.562	0.448
NCI-H2085	0.815	0.903	0.765	1.02	0.745	1.09	1.07	0.913	0.795	0.527	0.402	0.376	0.326	0.25	0.23	0.204	0.215
NCI-H2087	0.931	0.805	1.11	1.03	0.863	0.838	0.585	0.457	0.431	0.167	0.193	0.148	0.147	0.535	0.293	0.273	0.13
NCI-H2126	0.986	1.02	1.04	0.971	0.969	0.789	0.764	0.75	0.59	0.839	0.756	0.792	0.782	0.484	0.483	0.498	0.515
NCI-H2170	1.07	1.23	1.12	1.15	1.13	0.581	0.561	0.514	0.464	0.358	0.845	0.651	0.617	0.533	0.515	0.48	0.412
NCI-H2228	0.432	0.519	0.538	0.427	0.544	0.928	0.678	0.789	0.729	0.154	0.14	0.125	0.193	0.428	0.454	0.405	0.39
NCI-H2347	0.74	0.81	0.726	0.533	0.677	0.752	0.403	0.271	0.228	0.431	0.287	0.272	0.332	0.262	0.189	0.184	0.191
NCI-H2405	0.856	0.881	0.771	0.824	0.79	0.771	0.636	0.525	0.37	0.603	0.597	0.426	0.327	0.216	0.22	0.17	0.187
NCI-H3122	0.306	0.258	0.269	0.247	0.276	0.937	0.852	0.908	0.808	0.0969	0.0828	0.0994	0.0908	0.712	0.702	0.684	0.534
PC-3 [JPC-3]	0.896	0.987	1.04	0.965	0.969	0.824	0.744	0.721	0.651	0.721	0.625	0.458	0.442	0.974	0.99	0.976	0.841
PC-14	0.844	0.972	1.06	0.864	0.801	1.02	1.03	0.957	0.949	0.147	0.177	0.163	0.151	0.265	0.26	0.256	0.217
RERF-LC-KJ	0.742	0.872	1.08	0.879	0.785	0.726	0.819	0.939	0.758	1.32	0.924	1.06	0.987	0.883	0.792	0.714	0.766
